{"source": "ChEMBL document CHEMBL1201862", "about": "“PubChem BioAssay data set” (2004)", "key": {"[1]": {"target": "T1, Microphthalmia-associated transcription factor (Homo sapiens, UniProt O75030)", "T1 sequence (O75030 whole entry)": "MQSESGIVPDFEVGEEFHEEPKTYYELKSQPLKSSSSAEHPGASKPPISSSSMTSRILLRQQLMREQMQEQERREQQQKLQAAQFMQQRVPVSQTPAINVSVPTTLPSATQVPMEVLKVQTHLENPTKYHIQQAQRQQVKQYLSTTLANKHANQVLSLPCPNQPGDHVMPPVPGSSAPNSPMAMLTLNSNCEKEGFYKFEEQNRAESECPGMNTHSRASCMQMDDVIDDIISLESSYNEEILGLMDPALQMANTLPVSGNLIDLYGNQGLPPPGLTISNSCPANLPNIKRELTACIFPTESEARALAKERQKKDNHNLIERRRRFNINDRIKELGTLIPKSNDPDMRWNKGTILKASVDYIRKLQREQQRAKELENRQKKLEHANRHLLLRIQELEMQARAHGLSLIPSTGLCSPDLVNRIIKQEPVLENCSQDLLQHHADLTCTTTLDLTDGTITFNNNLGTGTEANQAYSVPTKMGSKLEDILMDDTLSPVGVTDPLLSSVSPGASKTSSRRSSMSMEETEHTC", "experiment": "TRPM1 promoter luciferase signal decrease, dose response, MITF inhibitor project, cell-based, SK-MEL-5, cherry-picked, set 3 (AID 493073)", "format": "functional"}, "[2]": {"experiment": "Luminescence Cell-Based Dose Retest to Confirm Inhibitors of Cancer Stem Cells. [Related pubchem assays (depositor defined):AID2717, AID2721]", "format": "functional", "settings": "Homo sapiens"}, "Vero": {"tested_on": "Vero", "experiment": "cells", "format": "functional", "settings": "Chlorocebus sabaeus"}, "Troponin, cardiac muscle": {"target": "Troponin, cardiac muscle (Homo sapiens, UniProt P19429+P45379+P63316)", "experiment": "Fluorescence-based biochemical high throughput dose response assay for activators of the calcium sensitivity of cardiac Regulated Thin Filaments (RTF). [Related pubchem assays (depositor defined):AID493008, AID493018, AID504382, AID504383]", "format": "protein-complex assay"}, "[3]": {"target": "Peroxisome proliferator-activated receptor gamma/Nuclear receptor coactivator 3 (Homo sapiens, UniProt P37231)", "sequence (P37231 whole entry)": "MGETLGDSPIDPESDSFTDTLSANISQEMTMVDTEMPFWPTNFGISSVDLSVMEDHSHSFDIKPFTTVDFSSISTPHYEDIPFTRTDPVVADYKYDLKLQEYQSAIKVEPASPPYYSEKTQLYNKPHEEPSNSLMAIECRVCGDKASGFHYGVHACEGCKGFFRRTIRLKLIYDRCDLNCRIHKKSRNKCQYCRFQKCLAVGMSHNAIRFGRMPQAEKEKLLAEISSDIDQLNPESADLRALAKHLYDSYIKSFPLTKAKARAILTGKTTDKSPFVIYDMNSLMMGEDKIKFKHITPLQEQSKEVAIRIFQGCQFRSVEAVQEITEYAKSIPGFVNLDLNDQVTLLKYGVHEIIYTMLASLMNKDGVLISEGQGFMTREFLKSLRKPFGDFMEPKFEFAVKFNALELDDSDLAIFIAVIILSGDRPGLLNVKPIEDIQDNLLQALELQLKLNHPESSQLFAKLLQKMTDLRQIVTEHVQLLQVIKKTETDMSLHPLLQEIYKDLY", "sequence (Q9Y6Q9 whole entry, further chain)": "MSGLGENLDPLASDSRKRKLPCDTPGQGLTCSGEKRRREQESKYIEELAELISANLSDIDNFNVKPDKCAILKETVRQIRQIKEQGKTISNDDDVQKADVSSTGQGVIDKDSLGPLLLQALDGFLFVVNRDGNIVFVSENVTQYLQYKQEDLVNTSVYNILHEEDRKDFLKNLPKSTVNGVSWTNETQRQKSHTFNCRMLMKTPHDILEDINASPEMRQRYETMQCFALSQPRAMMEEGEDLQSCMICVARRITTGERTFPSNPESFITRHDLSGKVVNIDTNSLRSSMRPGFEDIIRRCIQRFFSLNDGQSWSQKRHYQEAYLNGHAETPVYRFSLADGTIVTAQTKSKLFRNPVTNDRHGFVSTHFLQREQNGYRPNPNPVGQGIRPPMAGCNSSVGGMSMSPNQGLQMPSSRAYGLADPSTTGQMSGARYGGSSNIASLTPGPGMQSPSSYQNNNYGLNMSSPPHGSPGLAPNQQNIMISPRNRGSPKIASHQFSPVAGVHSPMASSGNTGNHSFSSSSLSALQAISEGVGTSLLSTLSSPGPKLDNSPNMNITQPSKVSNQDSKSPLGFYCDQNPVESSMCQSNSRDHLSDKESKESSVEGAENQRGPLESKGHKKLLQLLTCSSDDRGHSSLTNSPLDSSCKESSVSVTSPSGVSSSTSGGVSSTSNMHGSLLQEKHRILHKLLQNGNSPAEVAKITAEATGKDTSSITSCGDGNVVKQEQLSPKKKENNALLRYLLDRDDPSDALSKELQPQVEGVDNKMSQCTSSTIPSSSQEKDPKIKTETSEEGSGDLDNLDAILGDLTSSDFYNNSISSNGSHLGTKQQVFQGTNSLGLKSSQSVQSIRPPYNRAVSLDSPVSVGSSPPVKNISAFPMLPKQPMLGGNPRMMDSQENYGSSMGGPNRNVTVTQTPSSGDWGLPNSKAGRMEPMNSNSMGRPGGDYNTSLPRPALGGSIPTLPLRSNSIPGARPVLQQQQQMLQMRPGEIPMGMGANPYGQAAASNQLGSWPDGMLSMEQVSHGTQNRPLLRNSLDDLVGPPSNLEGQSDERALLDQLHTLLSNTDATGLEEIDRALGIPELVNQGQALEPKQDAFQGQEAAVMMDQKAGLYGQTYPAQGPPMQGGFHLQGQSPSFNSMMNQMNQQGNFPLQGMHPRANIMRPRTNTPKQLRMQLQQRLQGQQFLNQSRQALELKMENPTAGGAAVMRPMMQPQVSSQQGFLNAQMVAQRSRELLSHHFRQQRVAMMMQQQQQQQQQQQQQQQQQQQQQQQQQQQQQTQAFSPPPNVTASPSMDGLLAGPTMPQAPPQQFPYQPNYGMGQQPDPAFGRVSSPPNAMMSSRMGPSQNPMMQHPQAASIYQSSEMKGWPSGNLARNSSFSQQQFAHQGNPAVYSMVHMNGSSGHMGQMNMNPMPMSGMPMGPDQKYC", "experiment": "(§1) TR-FRET dose response biochemical High Throughput Screening assay for agonists of the steroid receptor coactivator 3 (SRC-3) recruitment by the peroxisome proliferator-activated receptor gamma (PPAR gamma): non-selective agonists. [Related pubchem assays: 1301 (Confirmation screen.), 1048 (Primary screen.)]", "format": "functional"}, "[4]": {"target": "Peroxisome proliferator-activated receptor gamma/Nuclear receptor coactivator 1 (Homo sapiens, UniProt P37231)", "experiment": "as §1, with “1 (SRC-1)” for “3 (SRC-3)”, “assays (depositor defined):AID1300, AID1808, AID504735, AID631]” for “assays: 1301 (Confirmation screen.), 1048 (Primary screen.)]”", "format": "protein assay"}, "[5]": {"target": "Peroxisome proliferator-activated receptor gamma/Nuclear receptor coactivator 2 (Homo sapiens, UniProt P37231)", "sequence (P37231 whole entry)": "as the sequence (P37231 whole entry) above", "sequence (Q15596 whole entry, further chain)": "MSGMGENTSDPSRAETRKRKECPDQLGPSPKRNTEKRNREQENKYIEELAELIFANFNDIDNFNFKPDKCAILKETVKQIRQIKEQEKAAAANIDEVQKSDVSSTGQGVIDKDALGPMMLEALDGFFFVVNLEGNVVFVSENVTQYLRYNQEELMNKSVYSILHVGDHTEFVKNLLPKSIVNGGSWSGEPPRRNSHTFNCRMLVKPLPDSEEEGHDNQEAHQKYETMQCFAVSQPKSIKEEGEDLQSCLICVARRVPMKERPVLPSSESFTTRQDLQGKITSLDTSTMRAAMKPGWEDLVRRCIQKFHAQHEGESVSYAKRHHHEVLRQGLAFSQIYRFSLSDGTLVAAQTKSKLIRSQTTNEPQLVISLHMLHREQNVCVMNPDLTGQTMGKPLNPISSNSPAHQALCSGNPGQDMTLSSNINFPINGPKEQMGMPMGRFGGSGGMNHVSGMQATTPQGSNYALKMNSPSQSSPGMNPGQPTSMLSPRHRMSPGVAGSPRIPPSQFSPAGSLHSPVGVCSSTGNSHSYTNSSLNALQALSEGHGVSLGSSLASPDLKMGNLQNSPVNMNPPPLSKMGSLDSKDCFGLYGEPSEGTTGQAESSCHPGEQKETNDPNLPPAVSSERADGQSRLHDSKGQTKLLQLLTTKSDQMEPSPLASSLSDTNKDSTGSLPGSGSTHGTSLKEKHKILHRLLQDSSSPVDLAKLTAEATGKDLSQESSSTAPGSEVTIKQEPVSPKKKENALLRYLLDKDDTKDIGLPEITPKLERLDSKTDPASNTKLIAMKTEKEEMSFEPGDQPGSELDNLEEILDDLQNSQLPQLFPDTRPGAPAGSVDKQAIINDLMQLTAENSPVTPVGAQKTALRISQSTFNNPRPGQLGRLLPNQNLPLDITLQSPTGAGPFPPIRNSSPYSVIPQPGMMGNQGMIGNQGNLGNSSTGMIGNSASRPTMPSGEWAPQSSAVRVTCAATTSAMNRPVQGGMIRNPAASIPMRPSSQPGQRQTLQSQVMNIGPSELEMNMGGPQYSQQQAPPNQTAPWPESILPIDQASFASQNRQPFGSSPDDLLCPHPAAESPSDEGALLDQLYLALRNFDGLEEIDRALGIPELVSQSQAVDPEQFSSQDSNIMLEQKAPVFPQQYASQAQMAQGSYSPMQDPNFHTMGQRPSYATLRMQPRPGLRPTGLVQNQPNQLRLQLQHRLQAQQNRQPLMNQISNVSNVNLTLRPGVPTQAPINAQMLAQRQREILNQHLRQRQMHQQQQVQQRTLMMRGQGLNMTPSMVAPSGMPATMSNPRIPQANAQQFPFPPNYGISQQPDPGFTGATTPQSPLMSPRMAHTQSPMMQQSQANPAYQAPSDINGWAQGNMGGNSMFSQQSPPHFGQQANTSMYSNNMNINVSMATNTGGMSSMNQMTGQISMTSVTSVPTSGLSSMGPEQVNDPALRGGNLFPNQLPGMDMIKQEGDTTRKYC", "experiment": "TR-FRET dose response biochemical High Throughput Screening assay for agonists of the steroid receptor coactivator 2 (SRC-2) recruitment by the peroxisome proliferator-activated receptor gamma (PPAR gamma): non-selective agonists. [Related pubchem assays: 1297, 1032 ]", "format": "functional"}, "[6]": {"experiment": "inhibitors of intracellular T. cruzi replication, confirmation, NIH3T3 host cells, beta-gal luminescence (AID 2044)", "format": "functional, cell-based"}, "[7]": {"experiment": "NIH-3T3 fibroblast cytotoxicity, dose response, cytotoxicity control, cell-based, fluorescence, Alamar Blue, secondary assay (AID 2327)", "format": "functional"}, "[8]": {"experiment": "C. albicans growth with fluconazole, confirmation, fluorescence, retest (AID 2467)", "format": "functional, cell-based"}, "INS1": {"tested_on": "INS1", "experiment": "beta cell apoptosis inhibitors, cytokine rescue, dose response, luminescence, retest (AID 449756)", "format": "functional, cell-based", "settings": "Rattus norvegicus"}, "[9]": {"target": "T2, COUP transcription factor 2 (Homo sapiens, UniProt P24468)", "T2 sequence (P24468 whole entry)": "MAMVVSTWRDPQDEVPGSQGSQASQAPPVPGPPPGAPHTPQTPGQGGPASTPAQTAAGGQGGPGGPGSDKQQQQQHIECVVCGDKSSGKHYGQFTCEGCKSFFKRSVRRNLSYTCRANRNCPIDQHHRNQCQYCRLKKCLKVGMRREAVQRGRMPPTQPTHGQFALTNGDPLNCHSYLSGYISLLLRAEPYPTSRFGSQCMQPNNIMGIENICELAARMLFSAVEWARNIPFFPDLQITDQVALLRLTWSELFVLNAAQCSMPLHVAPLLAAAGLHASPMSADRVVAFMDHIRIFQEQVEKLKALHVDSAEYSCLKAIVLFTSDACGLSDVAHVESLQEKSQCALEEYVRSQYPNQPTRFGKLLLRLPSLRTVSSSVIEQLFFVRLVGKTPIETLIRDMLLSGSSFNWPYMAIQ", "experiment": "Luminescence-based cell-based high throughput dose response assay to identify inhibitors of COUP-TFII (NR2F2).", "format": "functional"}, "[10]": {"target": "T3, Serine/threonine-protein phosphatase (Candida dubliniensis (strain CD36 / CBS 7987 / NCPF 3949 / NRRLY-17841) (Yeast), UniProt B9W6M3)", "T3 sequence (B9W6M3 whole entry)": "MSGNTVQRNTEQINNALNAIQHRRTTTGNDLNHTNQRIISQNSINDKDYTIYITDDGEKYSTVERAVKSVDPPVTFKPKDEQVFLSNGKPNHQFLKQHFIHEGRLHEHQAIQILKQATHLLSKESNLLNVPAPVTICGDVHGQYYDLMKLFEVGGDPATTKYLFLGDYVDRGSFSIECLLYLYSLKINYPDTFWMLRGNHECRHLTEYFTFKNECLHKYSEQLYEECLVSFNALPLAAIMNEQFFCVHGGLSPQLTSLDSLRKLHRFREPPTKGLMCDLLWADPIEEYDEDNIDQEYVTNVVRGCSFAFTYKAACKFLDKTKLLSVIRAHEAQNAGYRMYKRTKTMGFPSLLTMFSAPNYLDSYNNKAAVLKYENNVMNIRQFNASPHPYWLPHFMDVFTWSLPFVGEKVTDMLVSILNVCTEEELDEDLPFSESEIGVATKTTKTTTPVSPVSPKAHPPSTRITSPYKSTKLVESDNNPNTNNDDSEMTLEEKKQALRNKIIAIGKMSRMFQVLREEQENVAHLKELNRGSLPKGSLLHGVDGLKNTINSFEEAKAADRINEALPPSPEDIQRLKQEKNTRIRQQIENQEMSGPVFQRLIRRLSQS", "experiment": "calcineurin pathway inhibitors in yeast reporter, dose response, S. cerevisiae, CDRE-lacZ, luminescence, secondary (AID 2388)", "format": "functional, cell-based"}, "[11]": {"target": "ATP-dependent molecular chaperone HSP82 (Candida albicans (strain WO-1) (Yeast), UniProt C4YTQ8)", "experiment": "loss of DOC-induced GRE-beta-galactosidase reporter signal, dose response, Hsp90 inhibitor project, S. cerevisiae, luminescence (AID 2400)", "format": "functional, cell-based"}, "[12]": {"experiment": "cytotoxicity toward NIH3T3 fibroblasts, dose response, counter-screen, cell-based, ATP luminescence, mouse fibroblasts (AID 2010)", "format": "functional"}, "Protein Wnt-3a": {"target": "Protein Wnt-3a (Mus musculus, UniProt P27467)", "experiment": "Wnt3a-driven reporter signaling inhibition, dose response, selectivity assay for Gli-SUFU antagonist project, Wnt-LIGHT cells, luminescence (AID 651570)", "format": "functional", "settings": "read-out: IC50_Mean"}, "Cytochrome P450 2D6": {"target": "Cytochrome P450 2D6 (Homo sapiens, UniProt P10635)"}, "Cytochrome P450 2C9": {"target": "Cytochrome P450 2C9 (Homo sapiens, UniProt P11712)"}, "Paired box protein Pax-8": {"target": "Paired box protein Pax-8 (Homo sapiens, UniProt Q06710)", "sequence (Q06710 whole entry)": "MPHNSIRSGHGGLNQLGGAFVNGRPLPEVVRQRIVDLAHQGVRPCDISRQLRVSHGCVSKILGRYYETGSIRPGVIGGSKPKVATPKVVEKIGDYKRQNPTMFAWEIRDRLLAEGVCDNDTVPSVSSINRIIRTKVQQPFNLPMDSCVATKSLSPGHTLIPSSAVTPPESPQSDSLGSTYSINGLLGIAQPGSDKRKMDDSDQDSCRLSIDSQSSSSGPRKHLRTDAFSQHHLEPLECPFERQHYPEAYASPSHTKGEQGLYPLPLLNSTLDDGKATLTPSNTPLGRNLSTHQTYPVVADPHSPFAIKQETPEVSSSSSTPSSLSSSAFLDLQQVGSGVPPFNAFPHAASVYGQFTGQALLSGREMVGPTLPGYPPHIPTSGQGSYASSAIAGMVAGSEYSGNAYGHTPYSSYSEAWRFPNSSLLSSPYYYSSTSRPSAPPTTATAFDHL", "experiment": "inhibitors of PAX8-driven TPO luciferase reporter, dose response, RMG-I cells, cherry-pick (AID 687027)", "format": "functional, cell-based"}, "Cytochrome P450 3A4": {"target": "Cytochrome P450 3A4 (Homo sapiens, UniProt P08684)", "sequence (P08684 whole entry)": "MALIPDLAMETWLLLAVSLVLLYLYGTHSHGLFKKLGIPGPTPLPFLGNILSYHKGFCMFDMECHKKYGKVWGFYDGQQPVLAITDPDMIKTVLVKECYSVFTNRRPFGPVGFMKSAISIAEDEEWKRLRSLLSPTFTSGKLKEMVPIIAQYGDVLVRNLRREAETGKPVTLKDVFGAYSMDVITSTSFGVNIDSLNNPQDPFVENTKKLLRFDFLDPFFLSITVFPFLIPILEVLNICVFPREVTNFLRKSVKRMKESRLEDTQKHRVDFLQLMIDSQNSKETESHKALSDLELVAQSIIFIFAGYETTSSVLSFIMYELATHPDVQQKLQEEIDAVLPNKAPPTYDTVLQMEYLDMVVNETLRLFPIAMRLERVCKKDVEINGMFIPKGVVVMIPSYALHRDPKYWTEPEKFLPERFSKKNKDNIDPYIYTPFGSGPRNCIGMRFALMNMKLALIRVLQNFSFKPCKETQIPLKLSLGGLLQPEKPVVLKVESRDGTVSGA", "settings": "Potency"}, "[13]": {"experiment": "HepG2 cell cytotoxicity, dose response, cytotoxicity control, ATP luminescence, cherry-pick, activator set 2 (AID 1053143)", "format": "functional, cell-based"}}, "note": "The source made the active and inactive calls.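 For IC50 Mean in this document: Wnt-LIGHT reporter cells stimulated with conditioned medium from Wnt3a-producing cells.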", "data": [{"compound": "O=C(NCc1ccco1)c1nc(O)c2nnn(Cc3ccccc3Cl)c2n1", "values": [{"measurement": "AC50", "setting": "[1]", "result": "14.4 µM (active)"}, {"measurement": "AC50", "setting": "[2]", "result": "2.4 µM (active)"}, {"measurement": "CC50", "setting": "Vero", "result": "18.9 µM (active)"}]}, {"compound": "O=C(CSc1nc2cc(Br)c[nH]c-2n1)c1cccc([N+](=O)[O-])c1", "values": [{"measurement": "EC50", "setting": "Troponin, cardiac muscle", "result": "> 71.5 µM (inactive)"}]}, {"compound": "Nc1ccccc1-c1nnc(S)s1", "values": [{"measurement": "EC50", "setting": "[3]", "result": "> 79.4 µM (not active)"}, {"measurement": "EC50", "setting": "[4]", "result": "14.9 µM (inactive)"}, {"measurement": "EC50", "setting": "[5]", "result": "15.6 µM (not active)"}]}, {"compound": "C[n+]1c2n(c3ccccc31)N=C(c1ccc(-c3ccccc3)cc1)CS2", "values": [{"measurement": "EC50", "setting": "[6]", "result": "376 nM (active)"}, {"measurement": "EC50", "setting": "[7]", "result": "> 160 µM (inactive)"}, {"measurement": "EC50", "setting": "[8]", "result": "452 nM (active)"}, {"measurement": "AC50", "setting": "INS1", "result": "1.32 µM (active)"}, {"measurement": "IC50", "setting": "[9]", "result": "5.03 µM (active)"}, {"measurement": "EC50", "setting": "[10]", "result": "> 180 µM (inactive)"}, {"measurement": "EC50", "setting": "[11]", "result": "> 160 µM (inactive)"}, {"measurement": "EC50", "setting": "[12]", "result": "9.85 µM (active)"}, {"measurement": "IC50", "setting": "Protein Wnt-3a", "result": "736 nM (active)"}]}, {"compound": "CC(=O)N1N=C(c2ccc(Br)cc2)CC1c1cn(C)c2ccccc12", "note": "(stereo not drawn)", "values": [{"measurement": "EC50", "setting": "[3]", "result": "> 79.4 µM (not active)"}, {"measurement": "EC50", "setting": "[4]", "result": "18.5 µM (inactive)"}, {"measurement": "EC50", "setting": "[5]", "result": "18.3 µM (not active)"}]}, {"compound": "COc1ccc(/C=C2/SC(=S)N(CCCC(=O)N3CCN(C)CC3)C2=O)cc1", "values": [{"measurement": "CC50", "setting": "Vero", "result": "> 25 µM (active)"}]}, {"compound": "CN(Cc1ccccc1)C(=O)c1[nH]cnc1C(=O)NCc1ccccc1", "values": [{"measurement": "EC50", "setting": "Troponin, cardiac muscle", "result": "> 71.6 µM (inactive)"}]}, {"compound": "Cc1ccc(C)c(OCC(=O)OCc2csc(CC(=O)Nc3ccccc3C)n2)c1", "values": [{"measurement": "CC50", "setting": "Vero", "result": "> 25 µM (active)"}]}, {"compound": "CCCCN1CCC(CCC(=O)c2cc(Cl)c(N)cc2OC)CC1", "values": [{"measurement": "AC50", "setting": "Cytochrome P450 2D6", "result": "12.6 µM (inconclusive)"}, {"measurement": "AC50", "setting": "Cytochrome P450 2C9", "result": "inconclusive"}]}, {"compound": "COc1cc(/C=C/C(=O)N2CCC=CC2=O)cc(OC)c1OC", "note": "[PIPLARTINE]", "values": [{"measurement": "AC50", "setting": "Paired box protein Pax-8", "result": "2.69 µM (active)"}, {"measurement": "AC50", "setting": "[1]", "result": "7.4 µM (active)"}, {"measurement": "AC50", "setting": "Cytochrome P450 3A4", "result": "50.1 nM (inconclusive)"}, {"measurement": "AC50", "setting": "[13]", "result": "17.4 µM (active)"}]}]}
